# Test results published in patent publication US11111251B2, “Positive allosteric modulators of the muscarinic acetylcholine receptor M1” (Vanderbilt University, priority 2016, dated 2021).
# Where two headings read alike, the source gives them in different places.
# Target: T1, human mAChR M1 (Homo sapiens, UniProt P11229)
# T1 sequence (P11229 1-460): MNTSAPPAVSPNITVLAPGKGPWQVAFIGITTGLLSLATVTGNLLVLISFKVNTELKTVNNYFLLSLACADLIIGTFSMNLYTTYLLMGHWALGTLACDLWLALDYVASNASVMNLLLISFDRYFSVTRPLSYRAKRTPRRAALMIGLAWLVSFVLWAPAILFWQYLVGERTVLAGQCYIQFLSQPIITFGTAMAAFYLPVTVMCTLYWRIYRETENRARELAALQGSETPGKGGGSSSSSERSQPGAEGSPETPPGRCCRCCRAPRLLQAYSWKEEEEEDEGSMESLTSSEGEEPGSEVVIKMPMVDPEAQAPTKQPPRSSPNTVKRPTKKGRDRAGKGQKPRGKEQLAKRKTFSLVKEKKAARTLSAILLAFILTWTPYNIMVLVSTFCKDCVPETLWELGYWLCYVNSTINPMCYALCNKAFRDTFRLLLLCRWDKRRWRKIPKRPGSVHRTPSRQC
# Experiment: mAChR M1 cell-based functional assay: calcium mobilization, positive allosteric modulator mode (increase in EC20 acetylcholine response)
# Conditions: for Emax: read-out: Human M1 Emax (%)
# Outline: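 Calcium-flux assay in CHO-K1 cells stably expressing human M1, loaded with Fluo-4 AM (50 min, 37 °C) and read at 1 Hz. Compound (11-point, 1:3 series) was added at 4 s, EC20 acetylcholine at 144 s and EC80 at 230 s. PAM activity is the concentration-dependent rise in the EC20 response, fitted with a four-parameter logistic.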
# [1] = Table 2, human M1, read-out: Human M1 EC50
EC50 [µM],EC50 [1] [µM],"Emax (Table 2, human M1) [%]",SMILES
> 10,,,"Cc1ccc(Oc2cc(C(=O)NC3CC(F)C3)nc3ccsc23)cn1 (centres unmarked) [Compound 17, N-(3-fluorocyclobutyl)-7-[(6-methyl-3-pyridyl)oxy]thieno[3,2-b]pyridine-5-carboxamide]"
,1.91,66.1,"CC1CC(NC(=O)c2cc(Cc3ccc(-c4nccs4)cc3)c3sccc3n2)CC(C)O1 (centres unmarked) [Compound 386, N-(2,6-dimethyltetrahydropyran-4-yl)-7-[(4-thiazol-2-ylphenyl)methyl]thieno[3,2-b]pyridine-5-carboxamide]"
,0.0981,60.4,"Cn1cc(-c2ccc(Cc3cc(C(=O)NC4CCOC(C)(C)C4)nc4ccsc34)cc2)cn1 (centres unmarked) [Compound 381, N-(2,2-dimethyltetrahydropyran-4-yl)-7-[[4-(1-methylpyrazol-4-yl)phenyl]methyl]thieno[3,2-b]pyridine-5-carboxamide]"
,2.21,63.1,"CN1CC(NC(=O)c2cc(Cc3ccc(-n4cccn4)cc3)c3sccc3n2)CC1=O (centres unmarked) [Compound 438, N-(1-methyl-5-oxo-pyrrolidin-3-yl)-7-[(4-pyrazol-1-ylphenyl)methyl]thieno[3,2-b]pyridine-5-carboxamide]"
,1.36,84.1,"CO[C@@H]1CCCC[C@H]1NC(=O)c1cc(Cc2ccc(-c3coc(C)n3)cc2)c2sccc2n1 [Compound 169, N-[(1R,2R)-2-methoxycyclohexyl]-7-[[4-(2-methyloxazol-4-yl)phenyl]methyl]thieno[3,2-b]pyridine-5-carboxamide]"
,0.29,62.7,Cn1ccc(-c2ccc(Cc3cc(C(=O)NC[C@@H]4CCCN4)nc4ccsc34)cn2)n1 [Compound 426]
,2.46,64.4,"Cc1csc2c(Cc3ccc(-n4cccn4)cc3)cc(C(=O)NC3CCN(C)CC3)nc12 [Compound 124, 3-methyl-N-(1-methyl-4-piperidyl)-7-[(4-pyrazol-1-ylphenyl)methyl]thieno[3,2-b]pyridine-5-carboxamide]"
,0.858,73.3,"O=C(N[C@@H]1CCCOC1)c1cc(Cc2ccc(-c3cscn3)cc2)c2sccc2n1 [Compound 212, N-[(3R)-tetrahydropyran-3-yl]-7-[(4-thiazol-4-ylphenyl)methyl]thieno[3,2-b]pyridine-5-carboxamide]"
,> 10,34,"Cc1nc(-c2ccc(Cc3cc(C(=O)NC4COC4)nc4ccsc34)cc2)co1 [Compound 147, 7-[[4-(2-methyloxazol-4-yl)phenyl]methyl]-N-(oxetan-3-yl)thieno[3,2-b]pyridine-5-carboxamide]"
,1.79,83.2,"Cc1nc(-c2ccc(Cc3cc(C(=O)N[C@@H]4CCCOC4)nc4ccsc34)cc2)cs1 [Compound 188, 7-[[4-(2-methylthiazol-4-yl)phenyl]methyl]-N-[(3R)-tetrahydropyran-3-yl]thieno[3,2-b]pyridine-5-carboxamide]"
,1.78,82.6,"CN1CCC(NC(=O)c2cc(Cc3ccc(-c4cscn4)cc3)c3sccc3n2)CC1 [Compound 211, N-(1-methyl-4-piperidyl)-7-[(4-thiazol-4-ylphenyl)methyl]thieno[3,2-b]pyridine-5-carboxamide]"
,0.985,77.6,"Cn1ccc(-c2ccc(Cc3cc(C(=O)NC4CC5(COC5)C4)nc4ccn(C)c34)cn2)n1 [Compound 507, 1-methyl-7-[[6-(1-methylpyrazol-3-yl)-3-pyridyl]methyl]-N-(2-oxaspiro[3.3]heptan-6-yl)pyrrolo[3,2-b]pyridine-5-carboxamide;]"
,6.03,50.2,"Cn1cc(-c2cc(F)c(Cc3cc(C(=O)N[C@H]4CCC[C@@H]4O)nc4ccsc34)c(F)c2)cn1 [Compound 58, 7-[[2,6-difluoro-4-(1-methylpyrazol-4-yl)phenyl]methyl]-N-[(1S,2S)-2-hydroxycyclopentyl]thieno[3,2-b]pyridine-5-carboxamide]"
,1.68,43.1,"Cc1csc2c(Cc3ccc(-n4cccn4)cc3)cc(C(=O)N[C@H]3CCOC3)nc12 [Compound 317, 3-methyl-7-[(4-pyrazol-1-ylphenyl)methyl]-N-[(3S)-tetrahydrofuran-3-yl]thieno[3,2-b]pyridine-5-carboxamide]"
,> 10,66.8,"O=C(N[C@@H]1COCC[C@H]1O)c1cc(Cc2ccc(C(F)(F)F)nc2)c2sccc2n1 [Compound 92, N-[(3R,4R)-4-hydroxytetrahydropyran-3-yl]-7-[[6-(trifluoromethyl)-3-pyridyl]methyl]thieno[3,2-b]pyridine-5-carboxamide]"
,3.98,60.7,"Cc1csc2c(Cc3ccc(-n4cccn4)cc3)cc(C(=O)NCC3CCCCO3)nc12 (centres unmarked) [Compound 320, 3-methyl-7-[(4-pyrazol-1-ylphenyl)methyl]-N-(tetrahydropyran-2-ylmethyl)thieno[3,2-b]pyridine-5-carboxamide]"
,0.183,83.5,"Cn1ccc(-c2ccc(Cc3cc(C(=O)NC4CC5(COC5)C4)nc4ccn(C)c34)cc2)n1 [Compound 475, 1-methyl-7-[[4-(1-methylpyrazol-3-yl)phenyl]methyl]-N-(2-oxaspiro[3.3]heptan-6-yl)pyrrolo[3,2-b]pyridine-5-carboxamide]"
,0.312,45.5,"O=C(NC1CCOCC1)c1cc(Cc2c(F)cc(-c3cscn3)cc2F)c2sccc2n1 [Compound 271, 7-[(2,6-difluoro-4-thiazol-4-yl-phenyl)methyl]-N-tetrahydropyran-4-yl-thieno[3,2-b]pyridine-5-carboxamide]"
,0.297,71.8,"O=C(NC1CC(F)C1)c1cc(Cc2ccc(-n3cccn3)cc2)c2sccc2n1 (centres unmarked) [Compound 280, N-(3-fluorocyclobutyl)-7-[(4-pyrazol-1-ylphenyl)methyl]thieno[3,2-b]pyridine-5-carboxamide]"
,0.0298,72.3,"Cn1cc(-c2ccc(Cc3cc(C(=O)N[C@H]4CCCC[C@@H]4O)nc4ccn(C)c34)cn2)cn1 [Compound 469, N-[(1S,2S)-2-hydroxycyclohexyl]-1-methyl-7-[[6-(1-methylpyrazol-4-yl)-3-pyridyl]methyl]pyrrolo[3,2-b]pyridine-5-carboxamide]"
,0.258,78.4,"Cn1ccc(-c2ccc(Cc3cc(C(=O)NC4CC5(COC5)C4)nc4ccsc34)cc2)n1 [Compound 252, 7-[[4-(1-methylpyrazol-3-yl)phenyl]methyl]-N-(2-oxaspiro[3.3]heptan-6-yl)thieno[3,2-b]pyridine-5-carboxamide]"
,> 10,36.9,"Cc1ncc(Cc2cc(C(=O)NC34CC5CC(CC(O)(C5)C3)C4)nc3ccsc23)s1 [Compound 141, N-(3-hydroxy-1-adamantyl)-7-[(2-methylthiazol-5-yl]methyl]thieno[3,2-b]pyridine-5-carboxamide]"
,0.203,84.1,O=C(N[C@H]1CCC[C@@H]1O)c1cc(Cc2ccc(-c3nccs3)cc2)c2sccc2n1 [Compound 314]
,4.14,67.2,"Cn1ncc2nc(C(=O)NC[C@H]3CCCO3)cc(Cc3ccc(-n4cccn4)cc3)c21 [Compound 502, 1-methyl-7-[(4-pyrazol-1-ylphenyl)methyl]-N-[[(2R)-tetrahydrofuran-2-yl]methyl]-pyrazolo[4,3-b]pyridine-5-carboxamide]"
,1.71,72.9,"Cn1ncc2nc(C(=O)N[C@H]3CCC[C@@H]3O)cc(Cc3ccc(-c4cscn4)cc3)c21 [Compound 491, N-[(1S,2S)-2-hydroxycyelopentyl]-1-methyl-7-[(4-thiazol-4-ylphenyl)methyl]pyrazolo-[4,3-b]pyridine-5-carboxamide]"
,> 10,51.1,"CO[C@@H]1CCCC[C@H]1NC(=O)c1cc(Cc2cnc(C)s2)c2sccc2n1 [Compound 139, N-[(1R,2R)-2-methoxycyclohexyl]-7-[(2-methylthiazol-5-yl)methyl]thieno[3,2-b]pyridine-5-carboxamide]"
,0.405,69.9,"Cc1csc2c(Cc3ccc(-c4ccn(C)n4)cc3)cc(C(=O)NC3CCOCC3)nc12 [Compound 302, 3-methyl-7-[[4-(1-methylpyrazol-3-yl)phenyl]methyl]-N-tetrahydropyran-4-yl-thieno[3,2-b]pyridine-5-carboxamide]"
,1.41,72.2,"Cc1csc2c(Cc3ccc(-n4cccn4)cc3)cc(C(=O)NCC3CCOCC3)nc12 [Compound 318, 3-methyl-7-[(4-pyrazol-1-ylphenyl)methyl]-N-(tetrahydropyran-4-ylmethyl)thieno[3,2-b]pyridine-5-carboxamide]"
,> 10,72.7,"O=C(NC1CCOCC1)c1cc(C(=O)c2ccc(-n3cccn3)cc2)c2sccc2n1 [Compound 264, 7-(4-pyrazol-1-ylbenzoyl)-N-tetrahydropyran-4-yl-thieno[3,2-b]pyridine-5-carboxamide]"
,3.82,64,"Cc1nc(-c2ccc(Cc3cc(C(=O)NC4CC(F)C4)nc4ccsc34)cc2)cs1 (centres unmarked) [Compound 181, N-(3-fluorocyclobutyl)-7-[[4-(2-methylthiazol-4-yl)phenyl]methyl]thieno[3,2-b]pyridine-5-carboxamide]"
